Test system: 556581-035-R-J1-PDC complex spheroid growth
Experiment: Anticancer human tumor 556581-035-R-J1-PDC patient-derived ovarian carcinoma cell line growth inhibition [Asc]
Conditions: for IC50: curve of first compound; for viability, T/C: stronger effect = lower value; active means viability on the fitted dose curve at most 10% of control; inactive means the rest
Protocol: Multicellular complex tumor spheroid response to apoptosis pathway targeting inhibitors Alrizomadlin, Pelcitoclax, and Dasminapant in combination with a variety of drugs and investigational agents in selected tumor cell lines
The MDM2 inhibitor alrizomadlin, the Bcl-2/Bcl-xL inhibitor pelcitoclax, and the IAPs inhibitor dasminapant were evaluated both individually and in combination with standard of care and investigational anticancer small molecules within a complex spheroid model of solid tumors. . Complex spheroids include a stromal component modeled by human endothelial cells (HUVEC) and fibroblasts modeled by human mesenchymal stem cells (MSCs). The concentration ranges selected for each drug and investigational agent were based upon clinically achievable concentrations if the clinical Cmax of the agent was known.
Compounds. The drugs and investigational agents: alrizomadlin (APG-115; NSC831270), pelcitoclax (APG-1252; NSC835773), dasminapant (APG-1387;NSC834197), TAK-243 (NSC785004), copanlisib (NSC809693), olaparib (NSC753686), talazoparib (NSC767125), cobimetinib (NSC 768068), eltanexor (KPT-8602, NSC 794443), abemaciclib (NSC 768073), sotorasib (NSC818433), adagrasib (NSC 831453), MRTX-1133 (NSC 836407), Iadademestat (ORY1001, NSC 806812), and RMC-4630 (NSC839698), were obtained from the NCI Developmental Therapeutics Program Chemical Repository. The FDA-approved anticancer drug set is available from the Developmental Therapeutics Program at https://dtp.cancer.gov/organization/dscb/obtaining/available plates.htm. […] The stock solutions were prepared in dimethyl sulfoxide (DMSO, Sigma-Aldrich, St. Louis, MO, cat. D2650) at 800-fold the tested concentration and stored at -70 degrees C prior to their use. All drugs and investigational agents were tested over a range starting from a high concentration at or near the clinical Cmax and decreasing in half-log increments. If the clinical Cmax for an agent had not been determined, the highest concentration tested was 10 microM.
The patient-derived cancer (PDC) cell lines include five colon adenocarcinomas: 186277-243-T-J2-PDC, 616215-338-R-J1-PDC, 439559-082-T-J2-PDC, 463943-066-T-J2-PDC, and 519858-162-T-J1-PDC; three pancreatic carcinomas: 323965-272-R-J2-PDC, 521955-158-R6-J3-PDC, and 521955-158-R2-J5-PDC; two uterine sarcomas: 327498-152-R-J2-PDC and 993429-296-R-J1-PDC; two rhabdomyosarcomas: 755483-174-R-J1-PDC and 772245-204-R-J1-PDC; two soft tissue sarcomas: 126254-015-R-J1-PDC and 494315-158-R-J1-PDC; two malignant fibrous histiocytomas: 317291-083-R-J1-PDC and 596521-263-R-J1-PDC; two breast carcinomas: 171881-019-R-J1-PDC and 885512-296-R-J2-PDC; and one ovarian carcinoma: 6556581-035-R-J-PDC were obtained from the NCI PDMR, (https://pdmr.cancer.gov). The established cell lines HSSY-2 synovial sarcoma (RRID:CVCL 8719), SYO-1 synovial sarcoma (RRID:CVCL_7146), MPNST malignant peripheral neural sheath tumor were obtained from the Sloan Kettering Institute. The following established cell lines were purchased from the American Type Culture Collection (ATCC, Manassas, VA), Sor the received from the NCI repository:, PANC-1 pancreatic carcinoma (CRL-1469, RRID:CVCL_0480), OVCAR-5 ovarian carcinoma (RRID:CVCL_1628), OVCAR-8 ovarian carcinoma (RRID:CVCL_1629), , MCF-7 breast carcinoma (CRL-12584, RRID:CVCL_0031), MDA-MB-231 breast carcinoma (CRL-12532, RRID:CVCL_0062), NCI-H1876 small cell lung carcinoma (CRL-5902, RRID:CVCL_1503), NCI-H510A small cell lung carcinoma (HTB-184, RRID:CVCL_1565), NCI-H1417 (CRL-5869, RRID:CVCL_1469), and NCI-H196 small cell lung carcinoma (CRL-5823, RRID:CVCL_1509). Dr. Peter Houghton (Greehey Children's Cancer Research Institute, University of Texas Health Science Center, San Antonio, TX) provided Rh-18 rhabdomyosarcoma (RRID:CVCL_1659). Pooled donor human umbilical vein endothelial cells (HUVEC, Lonza, cat. CC-2519) and human mesenchymal stem cells (hMSC, Lonza, cat. PT-2501) were purchased from Lonza (Walkersville, MD).
Cell Culture. […]
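Further: spheroids exposed to agents for 7 days before viability read.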

CCN1C(C(=O)NC23CCC(C(=O)O)(CC2)CC3)C(c2cccc(Cl)c2F)C2(C(=O)Nc3cc(Cl)ccc32)C12CCCCC2 (stereo not given) + Cc1c(S(C)(=O)=O)c(-c2cc(F)cc(N3CCN(c4ccc(NS(=O)(=O)c5ccc(NC(CCN6CCC(C(=O)OCCCP(=O)(O)O)CC6)CSc6ccccc6)c(S(=O)(=O)C(F)(F)F)c5)cc4)CC3)c2)c(-c2ccc(Cl)cc2)n1C(C)C
0.812 µM: IC50 (second compound 10 µM)
inactive: viability, T/C (second compound 0.1 µM, first compound 0.00949 µM) 80.2% | viability, T/C (second compound 0.1 µM, first compound 0.03 µM) 84.5% | viability, T/C (second compound 0.1 µM, first compound 0.0949 µM) 89.2% | viability, T/C (second compound 0.1 µM, first compound 0.3 µM) 81.3% | viability, T/C (second compound 0.1 µM, first compound 0.949 µM) 82% | viability, T/C (second compound 0.1 µM, first compound 3 µM) 75.8% | viability, T/C (second compound 0.316 µM, first compound 0.00949 µM) 82.2% | viability, T/C (second compound 0.316 µM, first compound 0.03 µM) 77.6% | viability, T/C (second compound 0.316 µM, first compound 0.0949 µM) 85.3% | viability, T/C (second compound 0.316 µM, first compound 0.3 µM) 68.3% | viability, T/C (second compound 0.316 µM, first compound 0.949 µM) 64% | viability, T/C (second compound 0.316 µM, first compound 3 µM) 66.4% | viability, T/C (second compound 1 µM, first compound 0.00949 µM) 87% | viability, T/C (second compound 1 µM, first compound 0.03 µM) 74.2% | viability, T/C (second compound 1 µM, first compound 0.0949 µM) 80.1% | viability, T/C (second compound 1 µM, first compound 0.3 µM) 78.1% | viability, T/C (second compound 1 µM, first compound 0.949 µM) 60.2% | viability, T/C (second compound 1 µM, first compound 3 µM) 52.1% | viability, T/C (second compound 3.16 µM, first compound 0.00949 µM) 65.8% | viability, T/C (second compound 3.16 µM, first compound 0.03 µM) 68.3% | viability, T/C (second compound 3.16 µM, first compound 0.0949 µM) 74.8% | viability, T/C (second compound 3.16 µM, first compound 0.3 µM) 69.4% | viability, T/C (second compound 3.16 µM, first compound 0.949 µM) 77.1% | viability, T/C (second compound 3.16 µM, first compound 3 µM) 47.2% | viability, T/C (second compound 10 µM, first compound 0.00949 µM) 60.2% | viability, T/C (second compound 10 µM, first compound 0.03 µM) 67.6% | viability, T/C (second compound 10 µM, first compound 0.0949 µM) 55.6% | viability, T/C (second compound 10 µM, first compound 0.3 µM) 58.7% | viability, T/C (second compound 10 µM, first compound 0.949 µM) 49% | viability, T/C (second compound 10 µM, first compound 3 µM) 30.8%
> 3 µM: IC50 (second compound 0.1 µM) | IC50 (second compound 0.316 µM) | IC50 (second compound 1 µM) | IC50 (second compound 3.16 µM)

O=C(c1cc(Cc2n[nH]c(=O)c3ccccc23)ccc1F)N1CCN(C(=O)C2CC2)CC1 + CNC(C)C(=O)NC1CN(S(=O)(=O)c2cccc(S(=O)(=O)N3CCC4CCC(C(=O)NC(c5ccccc5)c5ccccc5)N4C(=O)C(NC(=O)C(C)NC)C3)c2)CCC2CCC(C(=O)NC(c3ccccc3)c3ccccc3)N2C1=O
inactive: viability, T/C (second compound 0.01 µM, first compound 0.0316 µM) 83.4% | viability, T/C (second compound 0.01 µM, first compound 0.1 µM) 74.5% | viability, T/C (second compound 0.01 µM, first compound 0.316 µM) 88.2% | viability, T/C (second compound 0.01 µM, first compound 1 µM) 93.8% | viability, T/C (second compound 0.01 µM, first compound 3.16 µM) 52.8% | viability, T/C (second compound 0.01 µM, first compound 10 µM) 56.8% | viability, T/C (second compound 0.0316 µM, first compound 0.0316 µM) 89.3% | viability, T/C (second compound 0.0316 µM, first compound 0.1 µM) 88.7% | viability, T/C (second compound 0.0316 µM, first compound 0.316 µM) 87.3% | viability, T/C (second compound 0.0316 µM, first compound 1 µM) 88.8% | viability, T/C (second compound 0.0316 µM, first compound 3.16 µM) 55.3% | viability, T/C (second compound 0.0316 µM, first compound 10 µM) 73.1% | viability, T/C (second compound 0.1 µM, first compound 0.0316 µM) 84.4% | viability, T/C (second compound 0.1 µM, first compound 0.1 µM) 67% | viability, T/C (second compound 0.1 µM, first compound 0.316 µM) 67.2% | viability, T/C (second compound 0.1 µM, first compound 1 µM) 61.5% | viability, T/C (second compound 0.1 µM, first compound 3.16 µM) 49.1% | viability, T/C (second compound 0.1 µM, first compound 10 µM) 61.2% | viability, T/C (second compound 0.316 µM, first compound 0.0316 µM) 88% | viability, T/C (second compound 0.316 µM, first compound 0.1 µM) 76.3% | viability, T/C (second compound 0.316 µM, first compound 0.316 µM) 86% | viability, T/C (second compound 0.316 µM, first compound 1 µM) 76% | viability, T/C (second compound 0.316 µM, first compound 3.16 µM) 50% | viability, T/C (second compound 0.316 µM, first compound 10 µM) 63.2% | viability, T/C (second compound 1 µM, first compound 0.0316 µM) 76.8% | viability, T/C (second compound 1 µM, first compound 0.1 µM) 84.1% | viability, T/C (second compound 1 µM, first compound 0.316 µM) 73.8% | viability, T/C (second compound 1 µM, first compound 1 µM) 88% | viability, T/C (second compound 1 µM, first compound 3.16 µM) 45.7% | viability, T/C (second compound 1 µM, first compound 10 µM) 61.2%
10 µM: IC50 (second compound 1 µM)
> 10 µM: IC50 (second compound 0.01 µM) | IC50 (second compound 0.0316 µM) | IC50 (second compound 0.1 µM) | IC50 (second compound 0.316 µM)
